Like-named read-outs stand apart in the source and are kept apart here.
Columns and labels:
[1] = system: phosphorylation of pRb at the Ser780 site in JeKo-1 mantle cell lymphoma cells; assay: CDK4 cellular assay: ELISA of pRb phosphorylation at Ser780 in JeKo-1 cells; format: cell-based
[2] = target: CDK1/cyclin B (Homo sapiens (Human), UniProt P06493); assay: CDK1/cyclin B enzymatic activity assay (IMAP-FP); format: biochemical; conditions: 100 nM Tamra Histone-H1 peptide, 20 μM ATP, 120 min at room temperature, read-out: Biochemical CDK1 enzyme IC50
Sequence of CDK1/cyclin B (P06493 whole entry, species assumed): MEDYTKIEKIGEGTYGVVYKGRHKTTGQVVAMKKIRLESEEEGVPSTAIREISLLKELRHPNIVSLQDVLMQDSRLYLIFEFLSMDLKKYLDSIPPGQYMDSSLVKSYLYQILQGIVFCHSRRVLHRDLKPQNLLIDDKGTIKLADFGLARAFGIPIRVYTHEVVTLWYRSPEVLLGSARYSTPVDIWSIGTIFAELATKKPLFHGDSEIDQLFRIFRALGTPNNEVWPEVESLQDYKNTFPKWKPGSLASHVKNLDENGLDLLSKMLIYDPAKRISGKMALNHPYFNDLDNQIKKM
Sequence of CDK1/cyclin B (P14635 whole entry partner, species assumed): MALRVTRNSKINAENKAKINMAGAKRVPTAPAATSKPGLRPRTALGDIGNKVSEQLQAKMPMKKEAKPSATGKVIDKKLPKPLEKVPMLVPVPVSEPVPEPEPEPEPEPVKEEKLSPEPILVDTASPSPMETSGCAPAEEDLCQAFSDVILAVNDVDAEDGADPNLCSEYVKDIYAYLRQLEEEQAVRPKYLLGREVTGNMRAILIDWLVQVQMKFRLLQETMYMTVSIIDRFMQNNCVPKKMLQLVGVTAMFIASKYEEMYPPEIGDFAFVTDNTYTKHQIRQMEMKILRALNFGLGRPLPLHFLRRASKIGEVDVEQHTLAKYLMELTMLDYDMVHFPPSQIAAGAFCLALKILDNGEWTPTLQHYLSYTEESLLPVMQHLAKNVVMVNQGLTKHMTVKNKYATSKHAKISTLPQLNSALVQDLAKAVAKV
Excerpt: CDK1/Cyclin B Enzymatic Activity Assay
A 384-well microtiter IMAP-FP™ (Molecular Devices Trade Mark Technology) endpoint assay was used for CDK1/cyclin B kinase activity measurements. The same assay was used for IC50 determination of small molecule inhibitors.

[3] = target: CDK4/cyclin D1 (Homo sapiens (Human), UniProt P11802); assay: CDK4/cyclin D1 enzymatic activity assay (TR-FRET, phosphorylation of pRb at Ser780); format: biochemical
Sequence of CDK4/cyclin D1 (P11802 whole entry): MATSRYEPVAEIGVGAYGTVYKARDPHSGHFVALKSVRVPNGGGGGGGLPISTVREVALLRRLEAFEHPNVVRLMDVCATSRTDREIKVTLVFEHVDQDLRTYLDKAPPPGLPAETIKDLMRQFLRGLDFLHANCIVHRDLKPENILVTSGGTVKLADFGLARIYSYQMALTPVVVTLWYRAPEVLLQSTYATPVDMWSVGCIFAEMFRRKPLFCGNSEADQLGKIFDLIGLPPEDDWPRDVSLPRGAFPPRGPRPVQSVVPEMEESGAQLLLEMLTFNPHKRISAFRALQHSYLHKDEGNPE
Sequence of CDK4/cyclin D1 (P24385 whole entry partner): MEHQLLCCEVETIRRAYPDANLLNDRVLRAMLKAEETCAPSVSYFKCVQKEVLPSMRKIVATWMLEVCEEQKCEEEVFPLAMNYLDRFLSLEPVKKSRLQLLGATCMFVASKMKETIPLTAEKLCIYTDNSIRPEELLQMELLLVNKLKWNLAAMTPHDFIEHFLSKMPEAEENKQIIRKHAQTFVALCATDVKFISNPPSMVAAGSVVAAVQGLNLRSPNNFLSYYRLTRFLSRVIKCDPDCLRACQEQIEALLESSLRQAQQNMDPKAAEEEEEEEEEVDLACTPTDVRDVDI
Method in brief: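 Phosphorylation at pRb Ser780, detected by TR-FRET, gave IC50s and kinetics. Enzyme: baculovirus/Sf21-expressed human CDK4/cyclin D1. ATP at 3 μM initiated the reaction; EDTA (pH 8.0) stopped it after 60 min at 22° C.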

[4] = Homo sapiens, JeKo-1, JeKo-1 cells, p-pRb % inhibition adjusted with total pRb levels, read-out: Normalized cellular ppRb inhibition IC50
[5] = Homo sapiens, JeKo-1, JeKo-1 cells, p-pRb Ser780 ELISA, non-normalized, read-out: Cellular ppRb inhibition IC50
[6] = 0.3 nM CDK4/cyclin D1, 150 nM biotin-pRb (773-924), 3 μM ATP, 60 min at 22° C., read-out: Biochemical CDK4 enzyme IC50
[7] = Homo sapiens, JeKo-1 cells, p-pRb % inhibition adjusted with total pRb levels, read-out: Normalized cellular ppRb inhibition IC50
[8] = Homo sapiens, JeKo-1 cells, p-pRb Ser780 ELISA, non-normalized, read-out: Cellular ppRb inhibition IC50
[9] = JeKo-1 cells, p-pRb % inhibition adjusted with total pRb levels, read-out: Normalized cellular ppRb inhibition IC50
[10] = JeKo-1 cells, p-pRb Ser780 ELISA, non-normalized, read-out: Cellular ppRb inhibition IC50

IC50 ([2]; 0.25 nM CDK1/cyclin B) [nM] | Structure (SMILES) | IC50 [1, 4] [nM] | IC50 [1, 5] [nM] | IC50 ([2]; […] CDK1/cyclin B) [nM] | IC50 [3, 6] [nM] | IC50 [1, 7] [nM] | IC50 [1, 8] [nM] | IC50 [1, 9] [nM] | IC50 [1, 10] [nM] | IC50 [3] [nM]
 | CN(C)C(=O)c1cc2cnc(Nc3ccc(N4CC5CCC(CC4=O)N5)cn3)nc2n1-c1ccccc1 (centres unmarked) [Example 128, 2-[5-(4-oxo-3,9-diaza-bicyclo[4.2.1]non-3-yl)-pyridin-2-ylamino]-7-phenyl-7H-pyrrolo[2,3-d]pyrimidine-6-carboxylic acid dimethylamide] | 140 | 81 | > 15000 | 9 |  |  |  |  | 
 | CNC(=O)c1cc2cnc(Nc3ccc(N4C[C@H]5CC[C@@H](CC4=O)N5C)cn3)nc2n1C1CCCC1 [Example 125, 7-cyclopentyl-2-[5-((1R,6S)-9-methyl-4-oxo-3,9-diaza-bicyclo[4.2.1]non-3-yl)-pyridin-2-ylamino]-7H-pyrrolo[2,3-c]pyrimidine-6-carboxylic acid methylamide] |  |  | > 15000 | 15 | 161 | 83 |  |  | 
 | CN(C)C(=O)c1cc2cnc(Nc3ccc(C(=O)N4CC5CC5(N(C)C)C4)cn3)nc2n1C1CCCC1 (centres unmarked) [Example 17, 7-Cyclopentyl-2-[5-(1-dimethylamino-3-aza-bicyclo[3.1.0]hexane-3-carbonyl)-pyridin-2-ylamino]-7H-pyrrolo[2,3-d]pyrimidine-6-carboxylic acid dimethylamide] |  |  | > 15000 | 65 | 643 | 281 |  |  | 
 | CN(C)C(=O)c1cc2cnc(Nc3ccc(N4CC5CCC(CC4=O)N5)cn3)nc2n1C1CCCC1 (centres unmarked) [Example 122, 7-Cyclopentyl-2-[5-(4-oxo-3,9-diaza-bicyclo[4.2.1]non-3-yl)-pyridin-2-ylamino]-7H-pyrrolo[2,3-d]pyrimidine-6-carboxylic acid dimethylamide] |  |  | > 15000 |  |  |  | 14 | 9 | 5 to 10
 | CN(C)C(=O)c1cc2cnc(Nc3ccc(N4CC5CCC(CC4=O)N5)cn3)nc2n1C1CCCCC1 (centres unmarked) [Example 131, 7-cyclohexyl-N,N-dimethyl-2-(5-(4-oxo-3,9-diazabicyclo[4.2.1]nonan-3-yl)pyridin-2-ylamino)-7H-pyrrolo[2,3-d]pyrimidine-6-carboxamide] | 24 | 14 | > 15000 | 4 |  |  |  |  | 
 | CN(C)C(=O)c1cc2cnc(Nc3ccc(C(=O)N4CC5CCC(C4)C5(C)O)cn3)nc2n1C1CCCCCC1 (centres unmarked) [Example 6, 7-cycloheptyl-2-(5-(8-hydroxy-8-methyl-3-azabicyclo[3.2.1]octane-3-carbonyl)pyridin-2-ylamino)-N,N-dimethyl-7H-pyrrolo[2,3-d]pyrimidine-6-carboxamide] |  |  | > 15000 | 187 | 889 | 148 |  |  | 
 | CN(C)C(=O)c1cc2cnc(Nc3ccc(N4CC5(CC6CCC(C5)N6)OC4=O)cn3)nc2n1C1CCCC1 [Example 101, 7-cyclopentyl-N,N-dimethyl-2-(5-((1R,3r, 5S)-2′-oxo-8-azaspiro[bicyclo[3.2.1]octane-3,5′-oxazolidine]-3′-yl)pyridin-2-ylamino)-7H-pyrrolo[2,3-d]pyrimidine-6-carboxamide] |  |  | > 15000 | 20 | 110 | 58 |  |  | 
 | CN(C)C(=O)c1cc2cnc(Nc3ccc(N4C(=O)CN5CCC4CC5)cn3)nc2n1C1CCCC1 [Example 96, 7-cyclopentyl-N,N-dimethyl-2-(5-(3-oxo-1,4-diazabicyclo[3.2.2]nonan-4-yl)pyridin-2-ylamino)-7H-pyrrolo[2,3-d]pyrimidine-6-carboxamide] |  |  | 10800 | 15 to 28 |  |  | 73 to 107 | 31 to 39 | 
 | CN(C)C(=O)c1cc2cnc(Nc3ccc(C(=O)N4CC5CCC(C4)N5)cn3)nc2n1C1CCCC1 [Example 18, 7-Cyclopentyl-2-[5-(3,8-diaza-bicyclo[3.2.1]octane-3-carbonyl)-pyridin-2-ylamino]-7H-pyrrolo[2,3-d]pyrimidine-6-carboxylic acid dimethylamide] | 26 to 90 | 12 to 37 | 13200 |  |  |  |  |  | 8 to 24
 | CN(C)C(=O)c1cc2cnc(Nc3ccc(C(=O)N4CC5CC5(N)C4)cn3)nc2n1C1CCCC1 (racemic) [Example 14, 2-[5-(1-Amino-3-aza-bicyclo[3.1.0]hexane-3-carbonyl)-pyridin-2-ylamino]-7-cyclopentyl-7H-pyrrolo[2,3-d]pyrimidine-6-carboxylic acid dimethylamide] | 371 | 133 | > 15000 | 19 |  |  |  |  | 
 | CN(C)C(=O)c1cc2cnc(Nc3ccc(C(=O)N4CC5CCC(C4)N5CCO)cn3)nc2n1C1CCCC1 [Example 28, 7-cyclopentyl-2-(5-(8-(2-hydroxyethyl)-3,8-diazabicyclo[3.2.1]octane-3-carbonyl)pyridin-2-ylamino)-N,N-dimethyl-7H-pyrrolo[2,3-d]pyrimidine-6-carboxamide] | 69 | 63 | > 15000 | 22 |  |  |  |  | 
 | CN(C)C(=O)c1cc2cnc(Nc3ccc(N4CC5(CCCNC5)OC4=O)cn3)nc2n1C1CCCC1 (centres unmarked) [Example 107, 7-cyclopentyl-N,N-dimethyl-2-(5-(2-oxo-1-oxa-3,7-diazaspiro[4.5]decan-3-yl)pyridin-2-ylamino)-7H-pyrrolo[2,3-d]pyrimidine-6-carboxamide] |  |  | > 15000 | 9 | 37 to 114 | 13 to 49 |  |  | 
 | CN(C)C(=O)c1cc2cnc(Nc3ccc(N4CC5COCC(CC4=O)N5)cn3)nc2n1C1CCCC1 (centres unmarked) [Example 145, 7-Cyclopentyl-2-[5-(4-oxo-8-oxa-3,10-diaza-bicyclo[4.3.1]dec-3-yl)-pyridin-2-ylamino]-7H-pyrrolo[2,3-d]pyrimidine-6-carboxylic acid dimethylamide] |  |  | > 15000 | 32 | 162 | 45 |  |  | 
 | CN(C)C(=O)c1cc2cnc(Nc3ccc(C(=O)N4CCN5CCCC5C4)cn3)nc2n1C1CCCC1 (centres unmarked) [Example 20, 7-Cyclopentyl-2-[5-(hexahydro-pyrrolo[1,2-a]pyrazine-2-carbonyl)-pyridin-2-ylamino]-7H-pyrrolo[2,3-d]pyrimidine-6-carboxylic acid dimethylamide] | 452 | 267 | > 15000 | 64 |  |  |  |  | 
 | CN(C)C(=O)c1cc2cnc(Nc3ccc(N4CC5(CC6CCC(C5)N6C)OC4=O)cn3)nc2n1C1CCCC1 [Example 102, 7-cyclopentyl-N,N-dimethyl-2-(5-((1R,3r,5S)-8-methyl-2′-oxo-8-azaspiro[bicyclo[3.2.1]octane-3,5′-oxazolidine]-3′-yl)pyridin-2-ylamino)-7H-pyrrolo[2,3-d]pyrimidine-6-carboxamide] | 71 | 39 | > 15000 | 18 |  |  |  |  | 
 | CN(C)C(=O)c1cc2cnc(Nc3ccc(C(=O)N4CCN5CCC[C@@H]5C4)cn3)nc2n1C1CCCC1 [Example 21, 7-Cyclopentyl-2-[5-((R)-hexahydro-pyrrolo[1,2-a]pyrazine-2-carbonyl)-pyridin-2-ylamino]-7H-pyrrolo[2,3-d]pyrimidine-6-carboxylic acid dimethylamide] | 401 | 187 | > 15000 | 47 |  |  |  |  | 
> 15000 | CN(C)C(=O)c1cc2cnc(Nc3ccc(C(=O)N4CC5C[C@]5(N)C4)cn3)nc2n1C1CCCC1 (single isomer, unassigned) [Example 16] | 233 | 92 |  | 15 |  |  |  |  | 
 | CN(C)C(=O)c1cc2cnc(Nc3ccc(C(=O)N4CC5COCC(C4)N5)cn3)nc2n1C1CCCC1 [Example 70, 7-Cyclopentyl-2-[5-(3-oxa-7,9-diaza-bicyclo[3.3.1]nonane-7-carbonyl)-pyridin-2-ylamino]-7H-pyrrolo[2,3-d]pyrimidine-6-carboxylic acid dimethylamide] |  |  | > 15000 | 39 | 180 | 117 |  |  | 
8980 to 11200 | CN(C)C(=O)c1cc2cnc(Nc3ccc(N4C[C@@H]5CNC[C@@H]5C4=O)cn3)nc2n1C1CCCC1 [Example 85, 7-cyclopentyl-N,N-dimethyl-2-(5-((3aS,6aR)-1-oxohexahydropyrrolo[3,4-c]pyrrol-2(1H)-yl)pyridin-2-ylamino)-7H-pyrrolo[2,3-d]pyrimidine-6-carboxamide] | 9 to 21 | 5 to 17 |  | 5 to 7 |  |  |  |  | 

Structure (SMILES) | IC50 ([2]; 0.25 nM CDK1/cyclin B) [nM] | IC50 [1, 4] [nM] | IC50 [1, 5] [nM] | IC50 ([2]; […] CDK1/cyclin B) [nM] | IC50 [3, 6] [nM] | IC50 [1, 7] [nM] | IC50 [1, 8] [nM] | IC50 [1, 9] [nM] | IC50 [1, 10] [nM] | IC50 [3] [nM]
Cc1cc(Nc2ncc3cc(C(=O)N(C)C)n(C4CCCC4)c3n2)ncc1C(=O)N1CC2CCC(C1)N2 [Example 51, 7-Cyclopentyl-2-[5-(3,8-diaza-bicyclo[3.2.1]octane-3-carbonyl)-4-methyl-pyridin-2-ylamino]-7H-pyrrolo[2,3-d]pyrimidine-6-carboxylic acid dimethylamide] | > 15000 |  |  |  | 23 | 60 | 28 |  |  | 

— US8957074B2 (Novartis AG, priority 2010, dated 2015)
